# Where two headings read alike, the source gives them in different places.
# System: wild-type ZIKV (Ugandan MR766 strain) in Vero cells
# Assay: ZIKV cytopathic effect (CPE) inhibition qHTS assay, CellTiter-Glo readout
# Assay type: cell-based, Zika virus
# [1] = Zika virus, Vero, read-out: Log AC50 (M) (converted)
# [2] = Zika virus, Vero, from Hill fit of the response curve, 50% of maximum activity response, 194 cherry-picked compounds, protocol name not given, read-out: AC50
# [3] = Zika virus, Vero, potency in log units (Molar) from Hill fit of the response curve, 194 cherry-picked compounds, protocol name not given, read-out: Log AC50 (converted)
# [4] = difference between neutral response and maximum compound response
Structure (SMILES),Efficacy,"AC50 (Zika virus, Vero) [M]",AC50 [1] [M],CC-v2 (curve class classification of the dose response curve),also measured
Cn1cc(-c2ccncc2)c(-c2ccc(OCc3ccc4ccccc4n3)cc2)n1 [NCGC00346630-05],-23.654,2.59e-05,2.59e-05,,
O=C(CCN1CCN(C(=O)OCc2cc(Cl)cc(Cl)c2)CC1)c1ccc2[nH]c(=O)oc2c1 [NCGC00346939-05],-25.5,7.31e-05,7.31e-05,,
OCCCNc1cc(-c2ccnc(Nc3cccc(Cl)c3)n2)ccn1 [NCGC00346940-02],-105.653,6.51e-05,6.51e-05,-2.1,
c1ccc(CNc2nc(N3CCOc4ccccc43)nc3c2CCCC3)cc1 [NCGC00347065-03],-32.702,5.17e-05,5.17e-05,,
CC1=CC(=O)[C@@H](O)[C@@]2(C)C1C[C@H]1OC(=O)[C@H](O)[C@@]3(O)[C@@H](C)[C@@H](O)[C@H](O)C2[C@@]13C (stereo partly shown) [NCGC00347801-02],-51.479,1.43e-05,1.43e-05,-1.2,
C=C(C)C(=O)O[C@H]1[C@@H]2[C@H](C)C(=O)O[C@@H]2C[C@@H](C)[C@@H]2C=CC(=O)[C@]21C [NCGC00347858-02],-111.628,4.53e-05,4.53e-05,-2.1,
Nc1c([S+](=O)([O-])c2ccccc2)c2nc3ccccc3nc2n1-c1ccc(F)cc1 [NCGC00351779-01],-26.957,7.31e-05,7.31e-05,,
CCCNc1ccc2ncc(-c3ccc4[nH]ncc4c3)n2n1 [NCGC00370724-05],-62.08,5.8e-05,5.8e-05,-2.2,
Cc1cc(C)c2nc(-c3ccccn3)cc(C(=O)Nc3ccc([S+](=O)([O-])Nc4onc(C)c4C)cc3)c2c1 [NCGC00370745-03],-23.798,3.26e-05,3.26e-05,,
O=C(c1cn(Cc2cncn2Cc2ccc(Br)cc2)cc1-c1cccc2ccccc12)N1CCOCC1 [NCGC00370772-05],-38.989,3.66e-05,3.66e-05,-2.2,
CCN(CC)C(=O)c1ccc(Nc2nc(OCC3CCCCC3)c3nc[nH]c3n2)cc1 [NCGC00370819-01],-42.267,4.61e-05,4.61e-05,,
Cc1nc[nH]c1C1CCN(c2nc3cccc4c3n2CCC4=O)CC1 [NCGC00370838-01],-41.62,1.84e-05,1.84e-05,-3,
CCCCCOc1cc2c(cc1-c1cc(/C=C/C(=O)O)ccc1O)C(C)(C)CCC2(C)C [NCGC00370868-01],,,,,AC50 [2]: 1.84e-05 M; AC50 [3]: 1.84e-05 M; Efficacy [4]: -36.339
C[S+](=O)([O-])NC[C@H]1CC[C@H](Nc2nc3c(s2)CCSc2ccccc2-3)CC1 [NCGC00370875-01],-44.692,7.31e-05,7.31e-05,-3,
CC1(C)CC=C(c2cnc3ccccc3c2)c2cc(C(=O)Nc3ccc(C(=O)O)cc3)ccc21 [NCGC00370906-01],-33.992,5.17e-05,5.17e-05,,
CC(C)c1cccc2c(-c3ccccc3)cc(-c3ccc(-c4ccc(C(=O)O)cc4)[nH]3)nc12 [NCGC00370963-01],-43.883,2.91e-05,2.91e-05,-3,
O=C1N(CC2CCCCN2)CCN1c1ccccc1 (stereo not shown) [NCGC00370981-01],-38.034,2.91e-05,2.91e-05,-3,
CN1CC2CN(c3ccc4oc5ccccc5c(=O)c4c3)CC2C1 (stereo not shown) [NCGC00371020-01],-29.929,3.17e-05,3.17e-05,,
Cc1cc2sc(NC(=O)Cc3ccccc3)nc2cc1Cl [NCGC00371143-05],-24.072,5.8e-05,5.8e-05,,
CN(C)c1cccc(-c2c3c(=O)n(-c4ccccc4Cl)[nH]c3cc(=O)n2C)c1 [NCGC00378460-08],-22.536,2.91e-05,2.91e-05,,
CC(C)C(=O)c1cn(CC(=O)COc2ccc(Oc3ccccc3)cc2)c2ccc(C(=O)O)cc12 [NCGC00378619-01],-17.195,1.3e-05,1.3e-05,,

Structure (SMILES),Efficacy,"AC50 (Zika virus, Vero) [M]",AC50 [1] [M],CC-v2 (curve class classification of the dose response curve),also measured
CCCOc1ccc([S+](=O)([O-])N2CCN(CCO)CC2)cc1-c1nc2c(CCC)cn(CC)c2c(=O)[nH]1 [NCGC00378703-02],-30.503,5.8e-05,5.8e-05,,
CCNC(=O)Nc1ccc(-c2nc3c(c(N4CCOC[C@@H]4C)n2)CCN(c2ncccn2)C3)cc1 [NCGC00378864-01],-63.761,2.06e-05,2.06e-05,,
O=C(O)C[C@H]1CC[C@H](c2ccc(-c3ccc(Nc4ccc(C(F)(F)F)nc4)cn3)cc2)CC1 [NCGC00378933-01],-46.182,5.8e-05,5.8e-05,-3,
Cc1cc(=O)oc2c(C=O)c(O)ccc12 [NCGC00379137-01],-45.072,5.8e-05,5.8e-05,-2.2,
Nc1cccc(CNC(=O)c2ccc(Oc3ccc(OCc4cccc(F)c4)cc3)nc2)c1 [NCGC00379156-01],-30.412,7.31e-05,7.31e-05,,
C=C1C(=O)CC2OC2(C)CC2OC(=O)C(=C)C2C(O)C1OC(=O)/C(C)=C\C (stereo not shown) [NCGC00380095-01],-52.521,4.53e-05,4.53e-05,-3,
CC(=O)OCC1OC(O[C@H]2CC[C@@]3(C)C(CC[C@]4(C)C3CC=C3[C@@H]5CC(C)(C)CC[C@]5(C(=O)O)CC[C@]34C)[C@]2(C)CO)C(O)C(O)C1OC1OC(C)C(O)C(OC2OCC(O)C(O)C2O)C1O (stereo partly shown) [NCGC00380575-01],-26.099,7.78e-06,7.78e-06,,
C/C=C(\C)C(=O)O[C@H]1C=CC(=O)O[C@H]1/C=C/[C@@H](O)[C@H](C)O [NCGC00380589-01],-37.007,6.51e-05,6.51e-05,,
CC1(C)C=CN2C(=O)C3=CCCN3C(=O)[C@@H]2C[C@@]12Nc1ccccc1C2=O [NCGC00380729-01],-25.178,4.53e-05,4.53e-05,,
CC(=O)OC[C@]12C[C@H](O)C(C)=C[C@H]1O[C@@H]1[C@H](O)[C@@H](O)[C@@]2(C)[C@]12CO2 [NCGC00380760-01],-57.268,,,-1.2,Log AC50 (M): -4.894 M; Max Resp: -47.163; AC50 (read-out: AC50): 1.28e-05 M
CC1CCC2C(=CCC(O)C2(C)C)C1(C)Cc1c(O)cc(CO)c(C=O)c1O (stereo not shown) [NCGC00380764-01],-71.029,4.04e-05,4.04e-05,-2.2,
CO[C@H]1/C=C/C=C/C=C/C[C@H](OC(=O)[C@@H](C)NC(=O)C2CCCCC2)[C@H](C)[C@@H](O)/C(C)=C\CCc2cc(O)cc(c2)NC(=O)C1 [NCGC00380800-01],-73.026,5.44e-06,5.44e-06,-1.2,
C/C(=C\CCC(C)CCO)C(=O)OC1(C)CCC2C(C(=O)O)=COC(OC3OC(CO)C(O)C(O)C3O)C21 (stereo not shown) [NCGC00380886-01],-68.93,1.12e-05,,,"Curve class: -3; AC50 (Zika virus, Vero, read-out: Log AC50 (converted)): 1.12e-05 M; Emax (Zika virus, Vero, read-out: Max response): -7.99%"
C=C(CO)C(=O)O[C@H]1C/C(C)=C/CC/C(CO)=C/[C@H]2OC(=O)C(=C)[C@H]12 [NCGC00380889-01],-76.574,1.43e-05,1.43e-05,-3,
COc1c2c(c(C)c3c1C(=O)OC3)OC1(C)CC(O)C34OC(OC)(CCC3(C)C1C2)OC4(C)CO (stereo not shown) [NCGC00380890-01],-69.031,1.42e-05,1.42e-05,-3,
COc1cc2c(cc1O)C(c1ccc(O)cc1)C(C)C(C)C2 (stereo not shown) [NCGC00380925-01],-32.851,6.51e-05,6.51e-05,-3,
C=C(C)C(=O)OC1CC2(C)OC(=CC2=O)C(=C)CC2OC(=O)C(=C)C12 (stereo not shown) [NCGC00381113-01],,,,,AC50 [2]: 2.02e-05 M; AC50 [3]: 2.02e-05 M; Efficacy [4]: -29.164
C=C(C)C1CCC(C)C12CC(O)C1(C)OC1C2OC(=O)C(N)CCC(=O)O (stereo not shown) [NCGC00381118-01],-55.082,2.02e-05,2.02e-05,-3,
CC(=O)CC1CCC(C(C)C(=O)OCC(O)CO)O1 (stereo not shown) [NCGC00381119-01],-53.159,2.91e-05,2.91e-05,-3,
CC1=CC2(O)/C=C/C(C)(O)C(O)C(O)/C=C/C(=O)OC23C(=O)NC(CC(C)C)C3C1C (stereo not shown) [NCGC00381121-01],-74.853,1.59e-05,1.59e-05,-3,
C[C@@H]1CCC2C(C)(C)[C@H](O)CC[C@]2(C)[C@@]12Cc1c(O)cc3c(c1O2)CN(CCO)C3=O (stereo partly shown) [NCGC00381123-01],-75.159,8.93e-06,8.93e-06,-3,
